These results are taken from ChEMBL document CHEMBL1129297 (J Med Chem, 1996).

Data set [1] addresses T1, 5-hydroxytryptamine receptor 1A (Homo sapiens, UniProt P08908).
T1 sequence (P08908 whole entry): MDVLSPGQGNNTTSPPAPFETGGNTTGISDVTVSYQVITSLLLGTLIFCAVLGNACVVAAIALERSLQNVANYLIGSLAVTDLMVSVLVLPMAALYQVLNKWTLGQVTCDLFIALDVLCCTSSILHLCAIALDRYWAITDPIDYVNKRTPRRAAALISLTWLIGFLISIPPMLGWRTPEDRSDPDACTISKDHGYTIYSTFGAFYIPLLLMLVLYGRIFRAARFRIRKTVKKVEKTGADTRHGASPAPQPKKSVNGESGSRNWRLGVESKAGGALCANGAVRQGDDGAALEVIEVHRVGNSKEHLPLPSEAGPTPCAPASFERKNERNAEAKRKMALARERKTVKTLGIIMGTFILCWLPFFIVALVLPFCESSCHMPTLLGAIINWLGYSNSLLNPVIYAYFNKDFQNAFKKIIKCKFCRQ

In data set [2] the target is T2, 5-hydroxytryptamine receptor 1B (Homo sapiens, UniProt P28222). As to the kind of experiment: Displacement of [3H]-5-HT from human 5-hydroxytryptamine 1D receptor beta.
Data set [3] has as its target T3, 5-hydroxytryptamine receptor 1D (Homo sapiens, UniProt P28221).
For data set [4], the target named is T2, 5-hydroxytryptamine receptor 1B. The experiment in a line: Binding affinity towards cloned human 5-hydroxytryptamine 1D receptor was determined using […] as radioligand.
For data set [5] the target is unchanged.
For data set [6], the target named is T3, 5-hydroxytryptamine receptor 1D. As to the kind of experiment: Binding affinity of compound against 5-HT1Dalpha Binding affinity of compound against 5-HT1D alpha receptors in human.
For another data set, the species on record is Cavia porcellus. The experiment in a line: Dissociation constant using guinea pig caudate membrane homogenate. The format is ADME.

T2 sequence (P28222 whole entry): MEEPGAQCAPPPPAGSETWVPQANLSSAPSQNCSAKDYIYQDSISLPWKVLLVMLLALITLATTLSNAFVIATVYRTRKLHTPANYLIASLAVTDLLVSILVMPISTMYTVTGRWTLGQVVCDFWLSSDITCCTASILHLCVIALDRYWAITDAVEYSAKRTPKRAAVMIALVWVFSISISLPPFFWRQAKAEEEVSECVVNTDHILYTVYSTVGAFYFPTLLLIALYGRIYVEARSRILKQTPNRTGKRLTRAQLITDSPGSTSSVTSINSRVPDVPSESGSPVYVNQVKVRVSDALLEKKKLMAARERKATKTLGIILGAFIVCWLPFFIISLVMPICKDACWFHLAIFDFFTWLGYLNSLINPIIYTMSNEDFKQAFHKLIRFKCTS
T3 sequence (P28221 whole entry): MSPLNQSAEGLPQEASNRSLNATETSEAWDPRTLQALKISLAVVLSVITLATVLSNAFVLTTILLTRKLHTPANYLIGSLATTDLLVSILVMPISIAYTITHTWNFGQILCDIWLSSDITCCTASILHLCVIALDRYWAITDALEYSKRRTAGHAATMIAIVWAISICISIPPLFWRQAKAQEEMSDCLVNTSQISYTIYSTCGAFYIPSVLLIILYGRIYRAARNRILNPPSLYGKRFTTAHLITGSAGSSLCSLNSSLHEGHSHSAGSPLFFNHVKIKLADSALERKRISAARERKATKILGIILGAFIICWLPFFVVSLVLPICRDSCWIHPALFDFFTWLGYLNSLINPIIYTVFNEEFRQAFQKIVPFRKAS

On to `CCc1ccc2[nH]cc(CCN)c2c1`, for which the Ki in data set [1] turned out to be 20 nM.
`CC(C)(C)CCCCCCCOc1ccc2[nH]cc(CCN)c2c1` came in with a Ki in data set [1] of 63 nM.
With `COc1ccc2[nH]c3c(c2c1)CC(N)CC3` (configuration not stated), the Ki in data set [2] is 342 nM; in data set [3] it was 1190 nM.
As for `CCCCCCCCCOc1ccc2[nH]c3c(c2c1)CCN(C)C3`, the Ki in data set [4] is > 1000 nM.
With `CCCCCCOc1ccc2[nH]c3c(c2c1)CC(N)CC3` (configuration not stated), the Ki in data set [5] was found to be 188 nM; in data set [3] it was 1100 nM.
In the case of `CCCOc1ccc2[nH]cc(CCN)c2c1`, the Ki in data set [1] stood at 88 nM.
Take `CCCCCCCCCCCOc1ccc2[nH]cc(CCN)c2c1`: the Ki in data set [1] came out at 885 nM; in data set [3], 69 nM.
On the same counts, the results for `NCCc1c[nH]c2ccc(OCCCCC3CCCCC3)cc12` are 800 nM and 55 nM.
As for `COc1ccc2[nH]c3c(c2c1)CC(N(C)C)CC3` (configuration not stated), the Ki in data set [5] was > 1000 nM.
Regarding `CCCCCCCCCOc1ccc2[nH]c3c(c2c1)CC(N)CC3` (configuration not stated), the Ki in data set [6] turned out to be 2350 nM; in data set [5] it was 172 nM.
Turning to `CC(C)(C)CCCCCCOc1ccc2[nH]cc(CCN)c2c1`, the Ki in data set [1] was 920 nM; in data set [3] it was 16 nM.
`CC(C)CCCCCCOc1ccc2[nH]cc(CCN)c2c1` came in with an inhibitory constant (Ki) in data set [3] of 42 nM.
Consider `CCCCCCCCCCOc1ccc2[nH]cc(CCN)c2c1`, for which the Ki was found to be 575 nM in data set [1] and 42 nM in data set [3].
In turn, `NC(=O)c1ccc2[nH]c3c(c2c1)CC(N)CC3` (configuration not stated) displayed a pKD in the data set filed under Cavia porcellus of 8. Besides, in data set [5], the Ki was 10 nM.
Consider `CCCCCOc1ccc2[nH]cc(CCN)c2c1`, for which the Ki was 42 nM in data set [1] and 1.5 nM in data set [3].
On the same counts, the results for `CCCCCCCOc1ccc2[nH]cc(CCN)c2c1` are 38 nM and 4.9 nM.
For the molecule `CCCCCCCCC(=O)Oc1ccc2[nH]cc(CCN(C)C)c2c1`, in data set [1], the affinity corresponds to a Ki of 9.3 nM.
On to `CCCCCCCCCCc1ccc2[nH]c3c(c2c1)CC(N)CC3` (configuration not stated), for which the Ki in data set [4] is > 1000 nM.
In turn, `CCCCCCCCCOc1ccc2[nH]cc(CCN(C)C)c2c1` gave a Ki in data set [1] of 575 nM.
On the same count and under the same terms, as for `CCC(=O)Oc1ccc2[nH]cc(CCN(C)C)c2c1`, the figure is 405 nM.
`CCCCCCCCOc1ccc2[nH]cc(CCN)c2c1` gave a Ki in data set [3] of 1.6 nM.
Take `CCCCCCCCCCc1ccc2[nH]cc(CCN)c2c1`: the Ki in data set [3] was determined as 210 nM.
Regarding `CCCCCCCCCOc1ccc2[nH]cc(CCNCCCC)c2c1`, the Ki is 1550 nM in data set [1] and 223 nM in data set [3].
`CCc1ccc2[nH]cc(CCN(C)C)c2c1` gave a Ki in data set [1] of 15 nM.
On the same count and under the same terms, as for `COc1ccc2[nH]cc(CCN)c2c1` [5-METHOXYTRYPTAMINE], the figure is 3.2 nM.
The molecule `CC(=O)c1ccc2[nH]cc(CCN)c2c1` [ACETRYPTINE] yielded a Ki in data set [1] of 1.3 nM.
